From the kinase profiling compilation of Christmann-Franck et al. (2016)

Experiments:
Test in all cases: radiometric filter-binding kinase assay, Kinase HotSpot
Conditions in all cases: compound 0.5 µM; ATP 10 µM
KDR (human) = KDR (human) (UniProt P35968)
CAMK2A (human) = CAMK2A (human) (UniProt Q9UQM7)
MAPK1 (human) = MAPK1 (human) (UniProt P28482)
CSNK1E (human) = CSNK1E (human) (UniProt P49674)
TXK (human) = TXK (human) (UniProt P42681)
ERBB2 (human) = ERBB2 (human) (UniProt P04626)
MAP4K5 (human) = MAP4K5 (human) (UniProt Q9Y4K4)
CLK4 (human) = CLK4 (human) (UniProt Q9HAZ1)
RPS6KA2 KD1 KD2 (human) = RPS6KA2 KD1 KD2 (human) (UniProt Q15349)
PRKCZ (human) = PRKCZ (human) (UniProt Q05513)
FLT1 (human) = FLT1 (human) (UniProt P17948)
CAMK2B (human) = CAMK2B (human) (UniProt Q13554)
CSNK1A1 (human) = CSNK1A1 (human) (UniProt P48729)
STK4 (human) = STK4 (human) (UniProt Q13043)
RPS6KA1 KD1 KD2 (human) = RPS6KA1 KD1 KD2 (human) (UniProt Q15418)
DYRK1B (human) = DYRK1B (human) (UniProt Q9Y463)
STK33 (human) = STK33 (human) (UniProt Q9BYT3)
RPS6KB1 (human) = RPS6KB1 (human) (UniProt P23443)
Sequence of RPS6KB1 (human) (P23443 whole entry, looked up): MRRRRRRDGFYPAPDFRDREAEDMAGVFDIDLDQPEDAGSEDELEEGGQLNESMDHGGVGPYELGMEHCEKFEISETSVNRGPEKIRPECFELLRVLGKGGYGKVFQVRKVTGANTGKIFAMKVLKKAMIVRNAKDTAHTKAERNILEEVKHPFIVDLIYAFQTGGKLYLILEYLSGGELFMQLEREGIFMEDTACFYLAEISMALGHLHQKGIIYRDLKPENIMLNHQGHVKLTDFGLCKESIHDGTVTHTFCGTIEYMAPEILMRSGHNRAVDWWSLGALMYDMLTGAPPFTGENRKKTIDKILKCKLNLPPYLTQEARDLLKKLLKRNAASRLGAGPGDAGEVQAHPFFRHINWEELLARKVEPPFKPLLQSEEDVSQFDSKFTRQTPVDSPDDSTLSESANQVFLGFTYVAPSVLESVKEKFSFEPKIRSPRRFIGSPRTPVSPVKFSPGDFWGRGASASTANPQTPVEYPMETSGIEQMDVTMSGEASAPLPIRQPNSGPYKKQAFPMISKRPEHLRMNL

SGK2 (human) = SGK2 (human) (UniProt Q9HBY8)
CDK3 CCNE1 (human) = CDK3 CCNE1 (human) (UniProt Q00526+P24864)
PIM1 (human) = PIM1 (human) (UniProt P11309)
PAK6 (human) = PAK6 (human) (UniProt Q9NQU5)
RPS6KA4 KD2 (human) = RPS6KA4 KD2 (human) (UniProt O75676)
PTK6 (human) = PTK6 (human) (UniProt Q13882)
OXSR1 (human) = OXSR1 (human) (UniProt O95747)
MST4 (human) = MST4 (human) (UniProt Q9P289)
Sequence of MST4 (human) (Q9P289 whole entry, looked up): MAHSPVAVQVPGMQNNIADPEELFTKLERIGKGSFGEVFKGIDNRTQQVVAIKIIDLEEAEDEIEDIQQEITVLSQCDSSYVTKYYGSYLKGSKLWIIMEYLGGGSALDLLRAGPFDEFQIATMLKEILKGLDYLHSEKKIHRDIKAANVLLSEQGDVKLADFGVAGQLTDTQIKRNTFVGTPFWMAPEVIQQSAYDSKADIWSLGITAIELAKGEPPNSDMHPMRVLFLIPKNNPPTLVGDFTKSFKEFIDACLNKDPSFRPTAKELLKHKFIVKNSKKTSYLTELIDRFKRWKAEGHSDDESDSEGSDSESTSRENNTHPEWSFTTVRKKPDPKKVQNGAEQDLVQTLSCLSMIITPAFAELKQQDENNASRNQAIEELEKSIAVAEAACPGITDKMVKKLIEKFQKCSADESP

PLK3 (human) = PLK3 (human) (UniProt Q9H4B4)
DMPK (human) = DMPK (human) (UniProt Q09013)
PRKCB2 (human) = PRKCB2 (human) (UniProt P05771)
GRK5 (human) = GRK5 (human) (UniProt P34947)
Sequence of GRK5 (human) (P34947 whole entry, looked up): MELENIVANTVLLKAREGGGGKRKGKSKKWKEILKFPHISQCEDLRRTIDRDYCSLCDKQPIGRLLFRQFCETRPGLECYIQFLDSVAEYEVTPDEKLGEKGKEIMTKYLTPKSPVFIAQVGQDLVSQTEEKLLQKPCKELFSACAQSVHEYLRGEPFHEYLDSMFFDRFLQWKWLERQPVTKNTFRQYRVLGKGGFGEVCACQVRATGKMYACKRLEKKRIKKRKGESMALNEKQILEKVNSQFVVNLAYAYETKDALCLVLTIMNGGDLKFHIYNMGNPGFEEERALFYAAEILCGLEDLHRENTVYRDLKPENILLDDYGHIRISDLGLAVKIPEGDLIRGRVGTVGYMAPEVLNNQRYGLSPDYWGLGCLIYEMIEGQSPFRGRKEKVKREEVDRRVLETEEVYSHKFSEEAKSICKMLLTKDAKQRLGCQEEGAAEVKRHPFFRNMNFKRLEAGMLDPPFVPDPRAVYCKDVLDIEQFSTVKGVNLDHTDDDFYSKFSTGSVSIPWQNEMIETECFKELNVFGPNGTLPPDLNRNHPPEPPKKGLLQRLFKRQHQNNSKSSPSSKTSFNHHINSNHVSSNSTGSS

NUAK1 (human) = NUAK1 (human) (UniProt O60285)
PDPK1 (human) = PDPK1 (human) (UniProt O15530)
MAP3K8 (human) = MAP3K8 (human) (UniProt P41279)
TSSK1B (human) = TSSK1B (human) (UniProt Q9BXA7)
BRSK1 (human) = BRSK1 (human) (UniProt Q8TDC3)
NEK2 (human) = NEK2 (human) (UniProt P51955)
Sequence of NEK2 (human) (P51955 whole entry, looked up): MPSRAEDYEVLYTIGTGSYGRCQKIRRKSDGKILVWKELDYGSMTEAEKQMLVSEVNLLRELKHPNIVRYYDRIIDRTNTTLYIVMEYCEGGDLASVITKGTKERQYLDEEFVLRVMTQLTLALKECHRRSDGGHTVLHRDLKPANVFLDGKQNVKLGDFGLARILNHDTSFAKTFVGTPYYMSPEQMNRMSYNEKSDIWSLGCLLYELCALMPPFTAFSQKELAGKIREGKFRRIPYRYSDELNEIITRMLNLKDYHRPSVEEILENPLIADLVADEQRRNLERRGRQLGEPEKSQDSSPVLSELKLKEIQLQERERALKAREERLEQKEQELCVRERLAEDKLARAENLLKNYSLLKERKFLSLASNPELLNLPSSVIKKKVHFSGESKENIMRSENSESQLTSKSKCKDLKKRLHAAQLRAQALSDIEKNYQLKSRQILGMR

SYK (human) = SYK (human) (UniProt P43405)
MUSK (human) = MUSK (human) (UniProt O15146)
ITK (human) = ITK (human) (UniProt Q08881)
RAF1 (human) = RAF1 (human) (UniProt P04049)
JAK2 JH1 JH2 (human) = JAK2 JH1 JH2 (human) (UniProt O60674)
Sequence of JAK2 JH1 JH2 (human) (O60674 whole entry, looked up): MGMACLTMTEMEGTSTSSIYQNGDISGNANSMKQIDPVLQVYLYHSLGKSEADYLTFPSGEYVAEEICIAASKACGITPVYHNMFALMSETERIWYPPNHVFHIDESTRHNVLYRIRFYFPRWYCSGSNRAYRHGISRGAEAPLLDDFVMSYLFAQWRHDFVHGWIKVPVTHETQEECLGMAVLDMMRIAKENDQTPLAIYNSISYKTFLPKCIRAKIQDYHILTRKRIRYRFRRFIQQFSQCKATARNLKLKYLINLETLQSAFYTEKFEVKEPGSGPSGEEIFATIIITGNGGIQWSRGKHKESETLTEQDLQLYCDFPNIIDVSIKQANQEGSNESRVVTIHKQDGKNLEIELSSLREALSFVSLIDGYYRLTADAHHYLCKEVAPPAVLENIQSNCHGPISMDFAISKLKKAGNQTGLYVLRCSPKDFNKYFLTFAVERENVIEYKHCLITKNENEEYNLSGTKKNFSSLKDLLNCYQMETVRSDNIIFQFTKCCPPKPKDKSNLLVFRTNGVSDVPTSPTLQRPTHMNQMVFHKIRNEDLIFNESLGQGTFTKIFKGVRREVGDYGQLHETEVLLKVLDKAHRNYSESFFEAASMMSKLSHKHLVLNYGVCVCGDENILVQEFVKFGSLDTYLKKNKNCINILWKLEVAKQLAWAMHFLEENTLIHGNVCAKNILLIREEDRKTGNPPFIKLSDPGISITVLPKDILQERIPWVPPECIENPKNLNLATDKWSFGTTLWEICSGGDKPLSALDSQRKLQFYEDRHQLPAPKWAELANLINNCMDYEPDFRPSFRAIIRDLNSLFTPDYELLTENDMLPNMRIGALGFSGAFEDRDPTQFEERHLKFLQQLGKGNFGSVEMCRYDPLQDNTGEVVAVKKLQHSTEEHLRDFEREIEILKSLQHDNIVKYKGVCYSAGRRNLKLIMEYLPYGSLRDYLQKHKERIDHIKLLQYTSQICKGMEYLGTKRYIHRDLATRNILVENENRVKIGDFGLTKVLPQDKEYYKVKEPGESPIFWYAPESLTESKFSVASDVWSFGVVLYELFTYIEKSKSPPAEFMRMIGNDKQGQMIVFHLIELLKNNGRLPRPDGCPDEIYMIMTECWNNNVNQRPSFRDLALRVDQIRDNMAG

TAOK3 (human) = TAOK3 (human) (UniProt Q9H2K8)

Sequence of KDR (human) (P35968 whole entry, looked up): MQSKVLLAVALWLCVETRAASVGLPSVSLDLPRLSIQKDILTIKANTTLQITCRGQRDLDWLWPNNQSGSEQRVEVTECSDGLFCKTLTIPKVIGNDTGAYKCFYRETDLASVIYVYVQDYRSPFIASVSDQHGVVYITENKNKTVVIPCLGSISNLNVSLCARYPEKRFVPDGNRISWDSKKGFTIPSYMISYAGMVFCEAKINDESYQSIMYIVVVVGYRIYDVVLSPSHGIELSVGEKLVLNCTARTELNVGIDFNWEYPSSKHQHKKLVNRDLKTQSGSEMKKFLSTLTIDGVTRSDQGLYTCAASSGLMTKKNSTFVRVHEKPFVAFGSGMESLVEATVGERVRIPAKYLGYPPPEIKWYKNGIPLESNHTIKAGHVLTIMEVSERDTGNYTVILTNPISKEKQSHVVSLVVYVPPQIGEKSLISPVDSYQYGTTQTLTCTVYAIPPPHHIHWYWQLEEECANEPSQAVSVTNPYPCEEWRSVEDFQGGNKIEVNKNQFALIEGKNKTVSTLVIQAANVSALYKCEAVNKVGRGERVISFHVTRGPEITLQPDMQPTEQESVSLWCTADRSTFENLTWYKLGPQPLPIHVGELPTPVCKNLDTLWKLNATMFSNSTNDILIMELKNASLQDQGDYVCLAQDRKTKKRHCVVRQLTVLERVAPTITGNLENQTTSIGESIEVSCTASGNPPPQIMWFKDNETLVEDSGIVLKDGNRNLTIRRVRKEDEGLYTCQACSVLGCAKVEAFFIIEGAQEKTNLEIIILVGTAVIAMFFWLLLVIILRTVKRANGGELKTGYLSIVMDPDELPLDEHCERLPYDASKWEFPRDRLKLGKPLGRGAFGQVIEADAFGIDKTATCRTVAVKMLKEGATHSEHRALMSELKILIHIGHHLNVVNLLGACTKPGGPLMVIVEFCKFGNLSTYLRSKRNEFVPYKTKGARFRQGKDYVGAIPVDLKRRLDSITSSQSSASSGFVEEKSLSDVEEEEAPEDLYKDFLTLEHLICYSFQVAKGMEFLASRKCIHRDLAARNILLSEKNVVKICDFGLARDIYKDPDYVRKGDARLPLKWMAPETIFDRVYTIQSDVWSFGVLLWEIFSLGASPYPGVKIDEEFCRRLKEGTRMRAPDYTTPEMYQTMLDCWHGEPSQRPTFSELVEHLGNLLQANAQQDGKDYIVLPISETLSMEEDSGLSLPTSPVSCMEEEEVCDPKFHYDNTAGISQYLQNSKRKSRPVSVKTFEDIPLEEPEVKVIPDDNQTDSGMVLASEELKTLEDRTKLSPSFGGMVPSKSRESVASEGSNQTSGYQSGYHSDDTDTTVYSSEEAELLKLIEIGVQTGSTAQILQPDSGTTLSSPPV
Sequence of TXK (human) (P42681 whole entry, looked up): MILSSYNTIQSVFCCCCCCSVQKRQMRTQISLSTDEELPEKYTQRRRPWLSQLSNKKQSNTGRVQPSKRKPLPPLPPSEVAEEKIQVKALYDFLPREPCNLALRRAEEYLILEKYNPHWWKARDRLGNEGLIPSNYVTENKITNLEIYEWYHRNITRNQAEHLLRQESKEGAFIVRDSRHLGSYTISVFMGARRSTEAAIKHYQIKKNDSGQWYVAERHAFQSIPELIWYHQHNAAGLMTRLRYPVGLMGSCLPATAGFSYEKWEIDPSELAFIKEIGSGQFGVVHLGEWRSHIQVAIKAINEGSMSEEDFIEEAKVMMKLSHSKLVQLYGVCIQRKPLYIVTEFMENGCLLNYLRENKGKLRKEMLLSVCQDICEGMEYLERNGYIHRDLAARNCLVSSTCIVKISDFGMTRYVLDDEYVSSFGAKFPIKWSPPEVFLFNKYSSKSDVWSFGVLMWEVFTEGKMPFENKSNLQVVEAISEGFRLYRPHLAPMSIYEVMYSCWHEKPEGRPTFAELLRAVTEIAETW

Cn1c2ccccc2c2c3c(c4c5ccccc5n(CCC#N)c4c21)CNC3=O
residual activity (KDR (human)): 57% | residual activity (CAMK2A (human)): 19.1% | residual activity (MAPK1 (human)): 104% | residual activity (CSNK1E (human)): 80.4% | residual activity (TXK (human)): 6.39% | residual activity (ERBB2 (human)): 107% | residual activity (MAP4K5 (human)): 4.18% | residual activity (CLK4 (human)): 66.2% | residual activity (RPS6KA2 KD1 KD2 (human)): 0.299% | residual activity (PRKCZ (human)): 87% | residual activity (FLT1 (human)): 63.6% | residual activity (CAMK2B (human)): 51.3% | residual activity (CSNK1A1 (human)): 75.4% | residual activity (STK4 (human)): 3.73% | residual activity (RPS6KA1 KD1 KD2 (human)): 9.7% | residual activity (DYRK1B (human)): 25.6% | residual activity (STK33 (human)): 26.5% | residual activity (RPS6KB1 (human)): 6.71% | residual activity (SGK2 (human)): 94% | residual activity (CDK3 CCNE1 (human)): 65.2% | residual activity (PIM1 (human)): 36.1% | residual activity (PAK6 (human)): 20.4% | residual activity (RPS6KA4 KD2 (human)): 29.9% | residual activity (PTK6 (human)): 38.7% | residual activity (OXSR1 (human)): 102% | residual activity (MST4 (human)): 89.8% | residual activity (PLK3 (human)): 88.1% | residual activity (DMPK (human)): 101% | residual activity (PRKCB2 (human)): 9.73% | residual activity (GRK5 (human)): 89.1% | residual activity (NUAK1 (human)): 3.86% | residual activity (PDPK1 (human)): 63.2% | residual activity (MAP3K8 (human)): 111% | residual activity (TSSK1B (human)): 10.1% | residual activity (BRSK1 (human)): 20.2% | residual activity (NEK2 (human)): 89.9% | residual activity (SYK (human)): 14.6% | residual activity (MUSK (human)): 34.8% | residual activity (ITK (human)): 4.32% | residual activity (RAF1 (human)): 111% | residual activity (JAK2 JH1 JH2 (human)): 5.58%

CS(=O)(=O)CCNCc1ccc(-c2ccc3ncnc(Nc4ccc(OCc5cccc(F)c5)c(Cl)c4)c3c2)o1
residual activity (KDR (human)): 96.6% | residual activity (CAMK2A (human)): 98.6% | residual activity (MAPK1 (human)): 102% | residual activity (CSNK1E (human)): 99.4% | residual activity (TXK (human)): 110% | residual activity (MAP4K5 (human)): 109% | residual activity (CLK4 (human)): 115% | residual activity (RPS6KA2 KD1 KD2 (human)): 84% | residual activity (PRKCZ (human)): 79.7% | residual activity (FLT1 (human)): 100% | residual activity (CAMK2B (human)): 93.8% | residual activity (CSNK1A1 (human)): 104% | residual activity (STK4 (human)): 99.4% | residual activity (RPS6KA1 KD1 KD2 (human)): 105% | residual activity (DYRK1B (human)): 93.1% | residual activity (STK33 (human)): 94.7% | residual activity (RPS6KB1 (human)): 95.7% | residual activity (SGK2 (human)): 106% | residual activity (CDK3 CCNE1 (human)): 94.6% | residual activity (PIM1 (human)): 99% | residual activity (PAK6 (human)): 106% | residual activity (RPS6KA4 KD2 (human)): 93.4% | residual activity (PTK6 (human)): 103% | residual activity (OXSR1 (human)): 105% | residual activity (MST4 (human)): 110% | residual activity (PLK3 (human)): 105% | residual activity (DMPK (human)): 94.7% | residual activity (PRKCB2 (human)): 99.8% | residual activity (GRK5 (human)): 97.2% | residual activity (NUAK1 (human)): 108% | residual activity (PDPK1 (human)): 86.4% | residual activity (MAP3K8 (human)): 99.7% | residual activity (TSSK1B (human)): 79% | residual activity (BRSK1 (human)): 98.6% | residual activity (NEK2 (human)): 118% | residual activity (SYK (human)): 113% | residual activity (MUSK (human)): 96.5% | residual activity (TAOK3 (human)): 101% | residual activity (ITK (human)): 98.3% | residual activity (RAF1 (human)): 85.9% | residual activity (JAK2 JH1 JH2 (human)): 101%

N#C/C(=C\c1ccc(O)c(O)c1)C(=O)NCc1ccccc1
residual activity (KDR (human)): 95.8% | residual activity (CAMK2A (human)): 100% | residual activity (MAPK1 (human)): 92.2% | residual activity (CSNK1E (human)): 86.3% | residual activity (TXK (human)): 104% | residual activity (ERBB2 (human)): 97.6% | residual activity (CLK4 (human)): 94% | residual activity (RPS6KA2 KD1 KD2 (human)): 94.2% | residual activity (PRKCZ (human)): 104% | residual activity (FLT1 (human)): 88% | residual activity (CAMK2B (human)): 102% | residual activity (CSNK1A1 (human)): 110% | residual activity (STK4 (human)): 95.9% | residual activity (RPS6KA1 KD1 KD2 (human)): 102% | residual activity (DYRK1B (human)): 106% | residual activity (STK33 (human)): 94.9% | residual activity (RPS6KB1 (human)): 92.8% | residual activity (SGK2 (human)): 101% | residual activity (PIM1 (human)): 108% | residual activity (PAK6 (human)): 99.4% | residual activity (RPS6KA4 KD2 (human)): 94.2% | residual activity (PTK6 (human)): 86.7% | residual activity (OXSR1 (human)): 101% | residual activity (MST4 (human)): 103% | residual activity (PLK3 (human)): 96.1% | residual activity (DMPK (human)): 99.7% | residual activity (PRKCB2 (human)): 99.8% | residual activity (GRK5 (human)): 108% | residual activity (NUAK1 (human)): 90% | residual activity (PDPK1 (human)): 74% | residual activity (MAP3K8 (human)): 98.1% | residual activity (TSSK1B (human)): 90.2% | residual activity (BRSK1 (human)): 104% | residual activity (NEK2 (human)): 102% | residual activity (SYK (human)): 116% | residual activity (MUSK (human)): 97.9% | residual activity (TAOK3 (human)): 103% | residual activity (ITK (human)): 98.8% | residual activity (RAF1 (human)): 92.8% | residual activity (JAK2 JH1 JH2 (human)): 98.1%
